Test systems include HOP-62 NSCLC; NCI-H226 lung; NCI-H23 lung; NCI-H460 lung; NCI/ADR-RES ovarian; OVCAR-4 ovarian; SF-268 CNS; SK-MEL-28 melanoma; UO-31 renal; TK-10 renal.
Common to all, as to assay: inhibition of tumour cell growth, NCI panel, 48 h

Where “and” joins values, the source holds several entries; their conditions need not be identical. Identical values can stand only once.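 Method: 48-hour compound exposure of cells in 96-well plates, five concentrations, linear interpolation of endpoints. GI50 is the concentration that inhibits growth by half. TGI denotes the concentration required for complete inhibition of growth.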

Take `CC(C)=CCC/C(C)=C/CCC1(C)C=Cc2c(c3ccccc3oc2=O)O1` (stereo not given): the TGI in the assay with HOP-62 NSCLC is 17.8 µM; with NCI-H226 lung it was 30 µM; with NCI-H23 lung, 28.9 µM; in the assay with NCI-H460 lung, 30.1 µM; with NCI/ADR-RES ovarian it was 31.1 µM; with OVCAR-4 ovarian, 28.4 µM. In addition, the TGI was 40.8 µM in the assay on SF-268 CNS, 29.9 µM in the assay with SK-MEL-28 melanoma and 28.8 µM in the assay with UO-31 renal.
For `OC1COC(OCc2ccccc2)C(O)C1O` (stereo not given), the TGI in the assay with HOP-62 NSCLC, in the assay on NCI-H226 lung, in the assay with NCI-H23 lung, with NCI-H460 lung, in the assay with NCI/ADR-RES ovarian and with OVCAR-4 ovarian was over 100 µM throughout. Moreover, the TGI in the assay with SF-268 CNS, with SK-MEL-28 melanoma, with TK-10 renal and with UO-31 renal was over 100 µM in each case.
On to `C/C(=N\NC(=S)Nc1ccc([N+](=O)[O-])cc1)c1nc2ncccc2[nH]1`, for which the TGI came out at 4.33 µM with HOP-62 NSCLC; 1.87 µM in the assay with NCI-H226 lung; 4.14 µM with NCI-H23 lung; 3.31 µM with NCI-H460 lung; 5.22 µM with NCI/ADR-RES ovarian; 4.21 µM in the assay on OVCAR-4 ovarian. In addition, the TGI in the assay with SF-268 CNS was over 100 µM; in the assay on SK-MEL-28 melanoma it was 3.2 µM; in the assay with TK-10 renal it was 4.56 µM; in the assay with UO-31 renal, 1.35 µM.
For the compound `O=C(O)CCCc1ccccc1`, the GI50 with HOP-62 NSCLC is 235 µM and > 1000 µM; with NCI-H226 lung, 253 µM and > 1000 µM; with NCI-H23 lung, 377 µM and > 1000 µM; with NCI-H460 lung, over 1000 µM; in the assay with NCI/ADR-RES ovarian it was 83.1 µM and 21.2 µM; in the assay on SK-MEL-28 melanoma, 325 µM and > 1000 µM. Besides, the GI50 in the assay with TK-10 renal is 285 µM and > 1000 µM; with UO-31 renal, over 1000 µM. Also, the TGI in the assay with HOP-62 NSCLC is over 1000 µM; with NCI-H226 lung, 917 µM and > 1000 µM; with NCI-H23 lung, over 1000 µM; in the assay with NCI-H460 lung, 295 µM and > 1000 µM; with NCI/ADR-RES ovarian, 343 µM and 47.1 µM; with OVCAR-4 ovarian, 184 µM and > 1000 µM. Moreover, the TGI in the assay on SF-268 CNS was 348 µM and > 1000 µM; in the assay on SK-MEL-28 melanoma, over 1000 µM; in the assay with TK-10 renal it was over 1000 µM; in the assay on UO-31 renal, 715 µM and > 1000 µM.
For the compound `Cc1cn(C2CC(O)C(Cn3nncc3Cn3ncc(=O)[nH]c3=O)O2)c(=O)[nH]c1=O` (stereo not given), the TGI with HOP-62 NSCLC, in the assay on NCI-H226 lung, in the assay with NCI-H23 lung, in the assay on NCI/ADR-RES ovarian, with OVCAR-4 ovarian and in the assay with SF-268 CNS was over 100 µM throughout. For the same compound, the TGI with SK-MEL-28 melanoma, in the assay with TK-10 renal and with UO-31 renal was over 100 µM in each case.
In the case of `C=CCNC(=O)CN(CC(=O)OC)C1CCCCC1N(CC(=O)OC)CC(=O)OC` (stereo not given), the TGI in the assay on HOP-62 NSCLC, in the assay on NCI-H226 lung, with NCI-H23 lung, in the assay with NCI-H460 lung, with NCI/ADR-RES ovarian and in the assay with SF-268 CNS was over 100 µM throughout. The TGI with SK-MEL-28 melanoma, in the assay with TK-10 renal and in the assay with UO-31 renal was over 100 µM in each case.
With `O=C(O)C12CC3CC(C1)C2C=C3P(=O)(O)O` (stereo not given), the TGI with HOP-62 NSCLC, in the assay with NCI-H226 lung, with NCI-H23 lung, with NCI-H460 lung, in the assay with OVCAR-4 ovarian and in the assay with SF-268 CNS was over 100 µM throughout. Further, the TGI in the assay on SK-MEL-28 melanoma, with TK-10 renal and with UO-31 renal was over 100 µM throughout.
For the compound `COCCOCOC(C)(C)[C@H](CCO)O[Si](c1ccccc1)(c1ccccc1)C(C)(C)C`, the TGI was 35.9 µM in the assay on NCI-H23 lung; 22.3 µM in the assay on NCI-H460 lung; 22.5 µM in the assay on SF-268 CNS; 29.7 µM with SK-MEL-28 melanoma; 23 µM with TK-10 renal; 26.9 µM with UO-31 renal.
With `O=C1c2ccccc2C(=O)c2c1cc1c(c2[N+](=O)[O-])OCO1`, the GI50 in the assay on HOP-62 NSCLC is 1.74 µM; in the assay with NCI-H226 lung it was 2.06 µM; in the assay with NCI-H23 lung it was 2.4 µM; in the assay on NCI-H460 lung it was 2.11 µM; in the assay with NCI/ADR-RES ovarian, 1.15 µM; in the assay on OVCAR-4 ovarian, 1.2 µM. Besides, the GI50 in the assay with SF-268 CNS was 1.46 µM; in the assay with SK-MEL-28 melanoma it was 3.52 µM; in the assay on TK-10 renal, 2.38 µM; in the assay on UO-31 renal, 1.54 µM. In addition, the TGI was 5.19 µM with HOP-62 NSCLC; 7.16 µM in the assay with NCI-H226 lung; 8.29 µM in the assay on NCI-H23 lung; 7.06 µM in the assay with NCI-H460 lung; 8.87 µM with NCI/ADR-RES ovarian; 4.85 µM in the assay with OVCAR-4 ovarian. In addition, the TGI amounted to 7.73 µM in the assay with SF-268 CNS, 26.6 µM with SK-MEL-28 melanoma, 6.39 µM with TK-10 renal and 6.02 µM in the assay on UO-31 renal.
On to `CC(C)=CC(=O)OC1C2C(C)=CC(O)C(O)C2(C)C2C3(O)OCC24C(CC(=O)OC14)C(C)C3O` (stereo not given), for which the TGI in the assay on HOP-62 NSCLC stood at 0.683 µM; in the assay on NCI-H226 lung it was 0.388 µM; in the assay on NCI-H23 lung, 0.387 µM; with NCI-H460 lung, 0.337 µM; in the assay on NCI/ADR-RES ovarian it was 123 µM; in the assay with OVCAR-4 ovarian, 0.749 µM. In addition, the TGI in the assay on SF-268 CNS turned out to be 0.733 µM; in the assay with SK-MEL-28 melanoma, 0.199 µM; in the assay with UO-31 renal, 8.57 µM.
Consider `COc1cc(/C=C/C2=C(C#N)C(=O)OC2(C)C)ccc1O`, for which the TGI in the assay on HOP-62 NSCLC, in the assay on NCI-H226 lung, in the assay on NCI-H23 lung, in the assay on NCI-H460 lung, in the assay on SF-268 CNS and with SK-MEL-28 melanoma was over 100 µM in each case. Also, the TGI in the assay on TK-10 renal and in the assay with UO-31 renal was over 100 µM each time.
With `CCCCCCCCCCCCC(O)C(=O)O` (stereo not given), the TGI in the assay with HOP-62 NSCLC, in the assay with NCI-H23 lung, in the assay with NCI-H460 lung, with NCI/ADR-RES ovarian, in the assay on OVCAR-4 ovarian and in the assay with TK-10 renal was over 100 µM each time. In addition, the TGI in the assay with UO-31 renal was over 100 µM.
Turning to `COc1cc(C(=O)C2CC3(CCC2(O)c2cc(OC)c(OC)c(OC)c2)CC(=O)Nc2ccccc2C3=O)cc(OC)c1OC` (stereo not given), the TGI in the assay on HOP-62 NSCLC is over 100 µM; in the assay on NCI-H226 lung, over 100 µM; in the assay on NCI-H23 lung, over 100 µM; in the assay on NCI-H460 lung, 50.7 µM; in the assay on NCI/ADR-RES ovarian, over 100 µM; in the assay on OVCAR-4 ovarian, 57.5 µM. For the same compound, the TGI with SF-268 CNS, with SK-MEL-28 melanoma, with TK-10 renal and in the assay on UO-31 renal was over 100 µM throughout.
Regarding `c1ccc2cc3c(cc2c1)OP1(Oc2cccc4cccnc24)(O3)Oc2cc3ccccc3cc2O1`, the TGI in the assay with HOP-62 NSCLC is over 73.3 µM; in the assay with NCI-H226 lung it was 44.5 µM; in the assay with NCI-H23 lung, 16.9 µM; in the assay on NCI-H460 lung it was 12.3 µM; with NCI/ADR-RES ovarian, 19.2 µM; in the assay with OVCAR-4 ovarian, 11.8 µM. Further, the TGI in the assay on SF-268 CNS was over 100 µM; in the assay on SK-MEL-28 melanoma it was over 100 µM; in the assay on UO-31 renal, 20.1 µM.
For `Nc1n[nH]c(CCCCCCCc2nc(N)n[nH]2)n1`, the TGI in the assay on HOP-62 NSCLC, with NCI-H23 lung, with NCI-H460 lung, in the assay with OVCAR-4 ovarian, with SF-268 CNS and with SK-MEL-28 melanoma was over 100 µM in each case. Also, the TGI in the assay on TK-10 renal and in the assay on UO-31 renal was over 100 µM in each case.
Regarding `Cc1c(C2=NN=C(N=Nc3c(O)cccc3O)/C2=C/c2ccccc2)c(=O)n(-c2ccccc2)n1C`, the TGI with HOP-62 NSCLC, in the assay on NCI-H226 lung, in the assay with NCI-H23 lung, with NCI-H460 lung, in the assay on NCI/ADR-RES ovarian and in the assay with OVCAR-4 ovarian was over 100 µM in each case. Also, the TGI in the assay with SF-268 CNS, in the assay on SK-MEL-28 melanoma and in the assay on UO-31 renal was over 100 µM throughout.

For the origin of these results see PubChem BioAssay (NCI).
